The values below come from patent EP0658565A1, “Oral products” (UNILEVER PLC, priority 1993, dated 1995).

Assay [1] has as its system plaque bacteria. Nature of the assay: in vitro anti-plaque test involving saliva reinoculation. In kind it is cell-based. The note with it: 20 minutes on plaque grown on enamel discs.
Assay [2] has as its system S.mutans. The note with it: pH = 7; acid production by S.mutans.

As to `O=P([O-])([O-])O[C@H]1O[C@H](CO)[C@@H](O)[C@H](O)[C@H]1O.[Sn+2]` [Sn G-1-P, stannous glucose-1-phosphate], the “Relative Anti-Plaque Activity (% bacteria killed vs. control growth)” value in assay [1] (Sn^II conc. 1188 ppm) amounted to 32%; in assay [1] (Sn^II conc. 3594 ppm) it was 96%; in assay [1] (Sn^II conc. 6000 ppm), 98%. Also, the “Concentration of Sn²⁺ in mmole to reach 100 % acid inhibition” value in assay [2] was 0.2 mmol.

On to `O=P([O-])([O-])OP(=O)([O-])[O-].[Sn+2].[Sn+2]` [Sn₂P₂O₇, stannous pyrophosphate, reference compound], for which the “Relative Anti-Plaque Activity (% bacteria killed vs. control growth)” value in assay [1] (Sn^II conc. 6000 ppm) is reported as 76%. In assay [2], the “Concentration of Sn²⁺ in mmole to reach 100 % acid inhibition” value worked out at 1.02 mmol.

Turning to stannous glucose-6-phosphate [Sn G-6-P], the “Relative Anti-Plaque Activity (% bacteria killed vs. control growth)” value in assay [1] (Sn^II conc. 2406 ppm) is 22%; in assay [1] (Sn^II conc. 3594 ppm), 75%; in assay [1] (Sn^II conc. 6000 ppm) it was 88%. Moreover, the “Concentration of Sn²⁺ in mmole to reach 100 % acid inhibition” value in assay [2] was determined as 0.25 mmol.
